# Measurements from US10071954B2, “Hydrogen peroxide-activated compounds as selective anti-cancer therapeutics” (University of Cincinnati, priority 2014, dated 2018).
# Read-outs that look alike come from different tables or passages of the source.
# Assays:
# MA9.3RAS AML cells = experiment: MTT cytotoxicity assay in MA9.3RAS AML cells; type: cell-based, human
# Method: (§1) Cells were seeded at a density of 4×10^4 cells/well in a 96-well plate and incubated at 37° C. overnight. Then cells were treated for 48 hours with indicated concentrations of freshly dissolved compounds. The plates were centrifuged at 1500×g for 5 minutes at 4° C. to pellet the cells and the medium containing compounds was discarded; fresh medium containing 20 μL of MTT (5 mg/mL) was added to each well and incubated for an additional 4 h. The medium was removed. After adding 200 μL of DMSO to each well, the optical densities at 575 nm were determined. Cytotoxicity data are expressed as IC50 values obtained from the fit to a four parameter sigmoid using the graphing software KaleidaGraph (Synergy Software). All R^2 values were greater than 0.98 and standard errors of the three replicates were less than 20%.
# Structural components within 1 were then probed to determine effect on potency. The goal was to obtain activity that matched the two natural products, PTL and PLG, which show efficacy in tumor xenografts in mice. As a model system cytotoxicity of synthesized agents in the MA9.3RAS AML cell line was examined. These cells are transformed CD34^+ human blood stem cells engineered to express both an MLL-AF9 fusion protein and the common oncogene NrasG12D. Culturing was accomplished as previously described by Wunderlich, et al., Leukemia 24(10):1785-88 (2010). The molecular signatures associated with these cells closely mimic those identified in primary AML patient samples and the MLL-fusion is associated with poor survival. Cytotoxicity studies were performed in triplicates using an MTT cell proliferation assay. All MTT assays were repeated twice.
# [1] = test system: CD34+ selected human umbilical cord blood cells (UCB); experiment: MTT cytotoxicity assay in CD34+ selected umbilical cord blood cells (normal blood stem cells); type: cell-based; details: for IC50: CD34+ selected human umbilical cord blood cells, 48 hours treatment, MTT, read-out: IC50 against UCB
# Method: as §1
# (§2) The selectivity of select compounds was examined by treatment of primary CD34^+ normal human blood stem cells. These are untransformed and are genetically similar to MA9.3RAS cells except they lack the MLL-AF9 oncogene and active Nras^G12D oncogene. It is essential that reactive agents be selective since off-target reactivity is of great concern. In anti-cancer compounds, a selectivity factor, which in this instance is the ratio between the IC50 of normal cells over the IC50 of the AML cells, of one log unit is desired. Compound 1 is marginally selective with a ratio of 2.0±0.2. […] Conversion of the aniline to an alkyl amine led to improved selectivity.
# [2] = test system: CD34+ normal human blood stem cells vs MA9.3RAS AML cells; experiment: Selectivity factor: ratio of IC50 of normal cells over IC50 of AML cells; type: cell-based; details: for selectivity factor (ratio of IC50 of normal cells over IC50 of AML cells): CD34+ normal human blood stem cells / MA9.3RAS AML cells
# Description: as §2
# [3] = Oxidation of compound 14, HPLC analysis; type: physicochemical
# Method: These products were produced via both spontaneous and hydrogen-peroxide induced oxidation but not under an argon atmosphere (FIG. 4C right hand side). […] Importantly, addition of one molar equivalent hydrogen peroxide led to a near instantaneous conversion to the oxidized products. Using the lower limit of t1/2 less than 1 min leads to a large rate enhancement. Initially, the two products were isolated and a high-resolution MS was obtained on both. […] Several tautomers of 14-ox are possible (see FIG. 5A).
# AML cells = experiment: Cellular ROS level by DCF fluorescence assay; type: cell-based
# Method: Though it is widely accepted that bulk AML cells have elevated concentrations of reactive oxygen, it was desirable to ensure that the instant models had higher levels of ROS than healthy cells. CD34+ blood stem cells were harvested from three donors. Cells were counted, incubated with 2,7-dihydrodichlorofluorescein (DCF) diacetate, and their respective fluorescence compared after 30 min (FIG. 7). After deacylation, DCF is oxidized by a broad spectrum of ROS species and oxidases. Thus is a marker of general ROS and oxidation within cells. The three CD34+ selected UCB cell populations each derived from different healthy donors referred as #1 through #3 (FIG. 7) had fluorescence intensity of 0.69±0.03 (p<0.002), 0.60±0.03 (p<10^−6), 0.54±0.02 (p<10^−6) compared to 1.00±0.02 in the AML cell model.
# In order for 14 to be ROS-activatable, it needs to enter a cell and react with hydrogen peroxide, thereby lowering a cell's total ROS level as measured by DCF fluorescence (FIG. 8A). It should be noted that because 14 is highly lethal, concentrations ten-fold higher than the IC50 are required to lower a cell's ROS level. […] Similar experiments lacking addition of 14 show statistically significant increases in fluorescence intensities (p<0.001 for all time points while pretreated data set was not statistically significant from each other) with the endpoint having an intensity of 5.02±0.08.
# KEAP1 = experiment: Western blot against KEAP1 normalized to beta-actin; type: cell-based; details: AML cells
# Method: Finally, reactivity of 14 in a cell was examined (FIG. 8B). To accomplish this, western blot against KEAP1, normalized to beta-actin was performed. KEAP1 is a signaling molecule that inhibits NRF2^25, the transcription factor that regulates anti-oxidant concentrations in cells.
# [4] = test system: UT (healthy untransformed cells); experiment: IC50 panel, healthy untransformed cells; type: cell-based
# Description: (§3) Selectivity of compound 14 was examined by measuring IC50 against a variety of cell types, including AML cells obtained from individuals as well as common cell lines and healthy untransformed cells.
# [5] = test system: A_MA9 (Individual 1 transformed with MLL-AF9 fusion); experiment: IC50 panel, A_MA9; type: cell-based
# Description: as §3
# [6] = test system: A_MA9 + FLT3 (Individual 1 transformed with MLL-AF9 and FLT3-ITD); experiment: IC50 panel, A_MA9 + FLT3; type: cell-based
# Description: as §3
# [7] = test system: A_MA9 + Nras (Individual 1 transformed with MLL-AF9 and NrasG12D); experiment: IC50 panel, A_MA9 + Nras; type: cell-based
# Description: as §3
# [8] = test system: B_MA9 (Individual 2 transformed with MLL-AF9); experiment: IC50 panel, B_MA9; type: cell-based
# Description: as §3
# [9] = test system: B_MA9 + FLT3 (Individual 2 transformed with MLL-AF9 and FLT3-ITD); experiment: IC50 panel, B_MA9 + FLT3; type: cell-based
# Description: as §3
# [10] = test system: B_MA9 + Nras (Individual 2 transformed with MLL-AF9 and NrasG12D); experiment: IC50 panel, B_MA9 + Nras; type: cell-based
# Description: as §3
# [11] = test system: HL60 (common AML cell line); experiment: IC50 panel, HL60; type: cell-based; details: Homo sapiens, HL-60
# Description: as §3
# [12] = test system: MOLM13 (common AML cell line); experiment: IC50 panel, MOLM13; type: cell-based; details: Homo sapiens, MOLM-13
# Description: as §3
# [13] = test system: Kasumi1 (common AML cell line); experiment: IC50 panel, Kasumi1; type: cell-based; details: Homo sapiens, Kasumi 1
# Description: as §3
# [14] = Oxidation of compound 1 to 2 in PBS, HPLC analysis; type: physicochemical
# Method: To mimic cellular addition, 1 was incubated in PBS with limiting N-acetylcysteine and the products were analyzed by HPLC (FIG. 3C). The limiting N-acetylcysteine was necessary due to the formation of multiple addition products, since addition of a thiol to the aromatic ring makes further oxidation and addition easier. Compound 1 was converted to 2 in the absence of exogenous oxidant at a rate of 0.011±0.002 min^−1 (FIG. 3D, grey line), which leads to approximately 50% conversion in one hour. ROS-induced activation of 1 was then assessed. In the presence of 10 mM H2O2, a ten-fold excess, the rate of conversion was enhanced by […] to 0.6±0.1 min^−1. Once 2 was formed, N-acetylcysteine was added and NAC-2 was rapidly produced (FIG. 3C, black line) as confirmed by FTMS (FIG. 3E).
# [15] = Homo sapiens, MA9.3RAS AML cell line, MTT cell proliferation assay (Table 2 and text), read-out: IC50
# [16] = Homo sapiens, MA9.3RAS, MA9.3 AML cells, MTT assay (Table 3), read-out: IC50
molecule,measurement,setting,value
"O=C(CNC1CCCCC1)Nc1cc(O)ccc1O [Compound 14, 2-(cyclohexylamino)-N-(2,5-dihydroxyphenyl)acetamide]","viability of AML cells, in words",MA9.3RAS AML cells; FIG. 6B,eradicated
same,IC50,MA9.3RAS AML cells; [15],2 µM
same,IC50,[1],20 ± 2 µM
same,"viability of normal blood stem cells, in words","[1]; concentration that eradicated AML cells, FIG. 6B",did not affect viability
same,selectivity,[2]; AML cells vs normal blood stem cells,11 fold
same,activation by hydrogen peroxide,[3],more than 150 fold
same,time for complete conversion of 14,[3]; hydrogen peroxide (FIG. 4C legend),less than 0.1 hours
same,t1/2 of oxidation,"[3]; normal atmosphere, pseudo-zero order kinetics",2.58 ± 0.217 h
same,t1/2 of oxidation,[3]; one molar equivalent hydrogen peroxide,less than 1 min
same,fraction of 14 converted to its oxidation product,[3]; two hours under argon atmosphere,4±3%
same,"cellular ROS levels (DCF fluorescence), in words","AML cells; 20 μM, AML cells",time dependent loss in cellular ROS levels
same,DCF fluorescence intensity at endpoint,"AML cells; AML cells treated with 14, end of time course, without 14 5.02±0.08",4.31±0.08
same,DCF fluorescence intensity at addition of 14,"AML cells; AML cells, start of time course",1.06±0.13
same,"KEAP1 level, in words",KEAP1; 2 μM,statistically significant reduction in KEAP1
same,relative concentration of KEAP1 (KEAP1 to ACTB),KEAP1; after 24 hrs,0.65±0.09
same,IC50,[4],22 ± 2 µM
same,IC50,[5],4 ± 0.7 µM
same,IC50,[6],1.8 ± 0.07 µM
same,IC50,[7],2.3 ± 0.08 µM
same,IC50,[8],3.7 ± 0.1 µM
same,IC50,[9],1.6 ± 0.1 µM
same,IC50,[10],2.5 ± 0.03 µM
same,IC50,[11],4 µM
same,IC50,[12],6 ± 1 µM
same,IC50,[13],19 ± 3 µM
CN(CC(=O)Nc1cccc(O)c1)c1ccccc1 [Compound 5],IC50,MA9.3RAS AML cells; [15],> 100 µM
O=C(COc1ccccc1)Nc1cc(O)ccc1O [Compound 10],selectivity factor (ratio of IC50 of normal cells over IC50 of AML cells),[2],limited selectivity
CN(CC(=O)Nc1cc(O)ccc1O)c1ccccc1 [Compound 1],rate of conversion of 1 to 2,"[14]; PBS, absence of exogenous oxidant",0.011 ± 0.002 min⁻¹
same,conversion of 1 to 2 in one hour,[14]; absence of exogenous oxidant,approximately 50%
same,rate of conversion of 1 to 2,"[14]; presence of 10 mM H2O2, ten-fold excess",0.6 ± 0.1 min⁻¹
same,rate of conversion of 1 into 2,[14]; with hydrogen peroxide (FIG. 3D legend),0.6 min⁻¹
NC1=CC(=O)C=CC1=O [Compound 7],IC50,MA9.3RAS AML cells; [15],16 ± 2 µM
same,selectivity factor (ratio of IC50 of normal cells over IC50 of AML cells),[2],Neither compound 6 nor compound 7 were selective
CN(CC(=O)NC1=CC(=O)C=CC1=O)c1ccccc1 [Compound 2],IC50,MA9.3RAS AML cells; [15],21 ± 4 µM
C[C@@H](NC1CCCCC1)C(=O)Nc1cc(O)ccc1O [Compound 18],IC50,MA9.3RAS AML cells; [16],104 ± 2 µM
O=C(CSc1ccccc1)Nc1cc(O)ccc1O [Compound 11],selectivity factor (ratio of IC50 of normal cells over IC50 of AML cells),[2],limited selectivity
O=C(CO)Nc1cc(O)ccc1O [Compound 8],IC50,MA9.3RAS AML cells; [15],12 ± 3 µM
"Nc1ccc(O)c(NC(=O)CNC2CCCCC2)c1 [Compound 16, N-(5-amino-2-hydroxyphenyl)-2-(cyclohexylamino)acetamide]",IC50,"MA9.3RAS AML cells; Homo sapiens, MA9.3RAS, 48 hours treatment, MTT, read-out: IC50 against MA9.3RAS AML cells",3 ± 1 µM
same,IC50,MA9.3RAS AML cells; [16],5 ± 2 µM
same,IC50,[1],55 ± 4 µM
O=C(Nc1cc(O)ccc1O)C(NC1CCCCC1)C1CCCCC1 (stereo not shown) [Compound 19],IC50,MA9.3RAS AML cells; [16],107 ± 1 µM
O=C(CNc1ccccc1)Nc1cc(O)ccc1O [Compound 9],IC50,MA9.3RAS AML cells; [15],13 ± 2 µM
O=C(CNC1CCCCC1)Nc1cc([N+](=O)[O-])ccc1O [Compound 17],IC50,MA9.3RAS AML cells; [16],22 ± 7 µM
"parthenolide [PTL, reference compound]",IC50,"MA9.3RAS AML cells; MA9.3RAS AML cell line, MTT cell proliferation assay (Table 2 and text), read-out: IC50",3 ± 1 µM
same,selectivity factor (ratio of IC50 of normal cells over IC50 of AML cells),[2],2.1±0.4
CCCN(C)CC(=O)Nc1cc(O)ccc1O [Compound 12],IC50,MA9.3RAS AML cells; [15],18 ± 2 µM
CN(CC(=O)Nc1ccccc1O)c1ccccc1 [Compound 4],IC50,MA9.3RAS AML cells; [15],> 100 µM
"COc1cc(/C=C/C(=O)N2CCC=CC2=O)cc(OC)c1OC [PLG, piperlongumine, reference compound]",IC50,MA9.3RAS AML cells; [15],2 ± 1 µM
same,selectivity factor (ratio of IC50 of normal cells over IC50 of AML cells),[2],3.7±1
CC(=O)Nc1cc(O)ccc1O [Compound 6],IC50,MA9.3RAS AML cells; [15],35 ± 5 µM
same,selectivity factor (ratio of IC50 of normal cells over IC50 of AML cells),[2],Neither compound 6 nor compound 7 were selective
COc1ccc(OC)c(NC(=O)CN(C)c2ccccc2)c1 [Compound 3],IC50,MA9.3RAS AML cells; [15],> 100 µM
